Laboratory results reported in US7179941B2, “Carbonylamino-substituted acyl phenyl urea derivatives, process for their preparation and their use” (Sanofi-Aventis Deutschland GmbH, priority 2003, dated 2007).

Columns and labels:
[1] = molecular target: T1, human glycogen phosphorylase a (Homo sapiens, UniProt P06737); assay: Glycogen phosphorylase a activity test; format: biochemical; conditions: 10 μM test substance; GPa measured in reverse direction (glycogen synthesis from glucose 1-phosphate)
T1 sequence (P06737 1-847): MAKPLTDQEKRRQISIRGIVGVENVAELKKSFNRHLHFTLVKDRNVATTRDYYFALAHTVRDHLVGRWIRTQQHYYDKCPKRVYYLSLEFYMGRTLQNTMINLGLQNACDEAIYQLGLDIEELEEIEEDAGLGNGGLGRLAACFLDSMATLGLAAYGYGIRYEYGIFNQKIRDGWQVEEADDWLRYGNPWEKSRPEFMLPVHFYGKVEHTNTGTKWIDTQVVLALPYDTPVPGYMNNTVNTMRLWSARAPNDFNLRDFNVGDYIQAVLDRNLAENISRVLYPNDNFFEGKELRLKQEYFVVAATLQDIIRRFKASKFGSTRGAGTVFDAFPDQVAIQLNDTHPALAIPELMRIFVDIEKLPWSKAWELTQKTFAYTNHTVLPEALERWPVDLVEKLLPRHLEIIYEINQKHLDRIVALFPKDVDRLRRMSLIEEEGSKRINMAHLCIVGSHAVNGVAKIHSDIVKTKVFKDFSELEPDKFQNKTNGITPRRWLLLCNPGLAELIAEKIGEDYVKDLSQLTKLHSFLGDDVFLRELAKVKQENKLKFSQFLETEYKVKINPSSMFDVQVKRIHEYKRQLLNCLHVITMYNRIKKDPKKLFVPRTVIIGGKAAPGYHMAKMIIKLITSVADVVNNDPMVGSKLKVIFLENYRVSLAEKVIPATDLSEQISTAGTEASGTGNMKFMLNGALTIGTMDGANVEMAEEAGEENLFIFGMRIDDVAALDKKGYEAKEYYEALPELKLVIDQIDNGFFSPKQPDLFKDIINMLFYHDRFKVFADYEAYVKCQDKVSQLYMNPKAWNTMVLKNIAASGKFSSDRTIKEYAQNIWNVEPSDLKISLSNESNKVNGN
Experimental: Glycogen Phophorylase a Activity Test
The effect of compounds on the activity of the active form of glycogen phosphorylase (GPa) was measured in the reverse direction by monitoring the synthesis of glycogen from glucose 1-phosphate by determining the release of inorganic phosphate. All reactions were carried out as duplicate determinations in 96-well microtiter plates (half area plates, Costar No. 3696), and the change in absorption as a consequence of the formation of the reaction product was measured at the wavelength specified below in a Multiskan Ascent Elisa Reader (Lab Systems, Finland).
In order to measure the GPa enzyme activity in the reverse direction, the conversion of glucose 1-phosphate to glycogen and inorganic phosphate was measured by the general method of Engers et al. (Engers HD, Shechosky S, Madsen NB, Can J Biochem 1970 July;48(7):746–754) with the following modifications: human glycogen phosphorylase a (for example containing 0.76 mg of protein/ml (Aventis Pharma Deutschland GmbH), dissolved in buffer solution E (25 mM P-glycerophosphate, pH 7.0, 1 mM EDTA and 1 mM dithiotreitol) was diluted to a concentration of 10 μg of protein/ml with buffer T (50 mM Hepes, pH 7.0, 100 mM KCl, 2.5 mM EDTA, 2.5 mM MgCl2.6H2O) and addition of 5 mg/ml of glycogen. Test substances were prepared as a 10 mM solution in DMSO and diluted to 50 μM with buffer solution T. To 10 μl of this solution were added 10 μl of 37.5 mM glucose dissolved in buffer solution T and 5 mg/ml of glycogen, and also 10 μl of a solution of human glycogen phosphorylase a (10 μg of protein/ml) and 20 μl of 2.5 mM glucose 1-phosphate. The base value of the activity of glycogen phosphorylase a in the absence of test substance was determined by adding 10 μl of buffer solution T (0.1% DMSO). The mixture was incubated at room temperature for 40 minutes and the released inorganic phosphate was determined by means of the general method of Drueckes et al. (Drueckes P, Schinzel R, Palm D, Anal Biochem 1995 Sep. 1;230(1):173–177) with the following modifications: 50 μl of a stop solution of 7.3 mM of ammonium molybdate, 10.9 mM of zinc acetate, 3.6% of ascorbic acid, 0.9% of SDS are added to 50 μl of the enzyme mixture. After 60 minutes of incubation at 45° C., the absorption was measured at 820 nm. To determine the background absorption, the stop solution was added immediately after the addition of the glucose 1-phosphate solution in a separate reaction.

[2] = molecular target: T1, human glycogen phosphorylase a; assay: Glycogen phosphorylase a activity test; format: biochemical; conditions: read-out: inhibition at a concentration of 100 μM

Row | SMILES | % Inhibition at 10 μM [1] | inhibition at 100 µM [2] [%]
1 | O=C(O)C(=O)Nc1ccccc1C(=O)O [Comparative Example A, reference compound] | no inhibition | 11
2 | O=C(O)CC(=O)Nc1ccc(Cl)c(NC(=O)NC(=O)c2cc(F)c(F)cc2Cl)c1 [Example 86] | 95% | –
3 | COC(=O)C(=O)Nc1ccc(Cl)c(NC(=O)NC(=O)c2cc(F)c(F)cc2Cl)c1 [Example 87] | 96% | –
4 | O=C(NC(=O)c1cc(F)c(F)cc1Cl)Nc1cc(NC(=O)C(=O)O)ccc1Cl [Example 88] | 97% | –
